Laboratory results: US20080131500A1, “METHODS AND COMPOSITIONS FOR RAPID INACTIVATION OF PROTEINS” (The Board of Regents of The University of Texas System, priority 2006, published 2008)
Like-named read-outs stand apart in the source and are kept apart here.

Experiments:
[1] = biological target: T1, hirudin (Hirudo medicinalis, UniProt P01050); assay: Reduction of native hirudin by DTT at pH 9.0, 11.0 and 13.5, HPLC analysis; assay type: biochemical; settings: for rate constant of hirudin reduction: 50 mM DTT, 22° C.
T1 sequence (P01050 whole entry, looked up): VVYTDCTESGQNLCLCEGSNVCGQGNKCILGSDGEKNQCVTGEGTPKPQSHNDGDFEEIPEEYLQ
Method: FIG. 2. […] N-Hirudin (1 mg/ml) was reduced with 50 mM DTT at 22° C. in solutions of pH 9.0, pH 11.0 and pH 13.5. The buffers of pH 9.0 and 11.0 were prepared by the titration of 0.1N NaHC03 and 0.1N NaOH. The samples were quenched at different time points by acidification and analyzed by HPLC using the following conditions. Solvent A for HPLC was water containing 0.1% trifluoroacetic acid. Solvent B was acetonitrile/water (9:1, by volume) containing 0.086% trifluoroacetic acid. The gradient was 27% to 36% solvent B linear in 25 min. The flow rate was 0.5 ml/min. The column was Zorbax 300SB C-18 for peptides and proteins, 4.6 mm, 5 pm. Column temperature was 22° C. N indicates native hirudin.
Reduction of protein disulfide bonds by a reducing agent (such as β-mercaptoethanol, dithiothreitol or tris-carboxyethyl-phosphine) is typically performed at pH 8.0-8.5. […] Hirudin (a 3-disulfide protein) is used as an example here. Native hirudin was incubated with 20 mM, 50 mM or 100 mM of DTT at 22° C. in solutions of pH 9.0, 11.0 and 13.5 respectively. […] Thus, increase of pH from 9.0 to 13.5 accelerates the rate of reduction of hirudin at room temperature by approximately 30-fold. Similar effect of pH was also observed at DTT concentrations of 20 mM and 100 mM.

[2] = biological target: T1, hirudin; assay: Reduction of native hirudin in 1N NaOH, 50 mM DTT with added denaturant (GdnCl or GdnSCN), HPLC analysis; assay type: biochemical
Method: FIG. 3. […] N indicates native hirudin.
Denaturant is known to destabilize the conformation of native protein and decrease the covalent stability of disulfide bonds against reduction. In addition to the optimized pH (13.5) for hirudin reduction described above, denaturant (GdnCl and GdnSCN) was included to further accelerate the rate of reduction. Native hirudin (N) was incubated at 22° C. in solutions comprising 1N NaOH, 50 mM DTT and increasing concentrations of GdnCl (0.2M-2M) or GdnSCN (0.1M-I M). […] In the presence of 1M of GdnSCN, the reduction of hirudin completes within one minute.

[3] = cited from earlier work

Compound: O[C@H](CS)[C@H](O)CS (racemic) [DTT, dithiothreitol]
- rate constant of hirudin reduction ([1]; pH 9.0): 0.00377 min⁻¹
- rate constant of hirudin reduction ([1]; pH 11.0): 0.0235 min⁻¹
- acceleration of the rate of reduction of hirudin ([1]; increase of pH from 9.0 to 13.5, room temperature): approximately 30 fold

Compound: Cl.N=C(N)N [GdnCl, guanidinium chloride]
- potency of 6M GdnCl relative to 1M GdnSCN ([2]; 6M GdnCl versus 1M GdnSCN): about 3 fold
- potency relative to GdnSCN ([2]; acceleration of hirudin reduction in 1N NaOH, 50 mM DTT): approximately 50%

Compound: N#CS.N=C(N)N [GdnSCN, guanidine thiocyanate]
- time to complete reduction of hirudin ([2]; 1M GdnSCN in 1N NaOH, 50 mM DTT, 22° C.): one
- further acceleration of the reduction of hirudin ([2]; inclusion of 0.2M GdnSCN in 1N NaOH, 50 mM DTT, 22° C.): 2.5 fold
- further acceleration of the reduction of hirudin ([2]; inclusion of 0.5M GdnSCN in 1N NaOH, 50 mM DTT, 22° C.): 5 fold

Compound: hirudin
- hirudin in a denatured state ([3]; 6 M GdnCl): 67%
- hirudin in a denatured state ([3]; 8 M urea): 14%
